Reference: patent US20180236105A1, “METHODS FOR TREATING NEURODEGENERATIVE DISEASES USING GENE THERAPY TO DELAY DISEASE ONSET AND PROGRESSION WHILE PROVIDING COGNITIVE PROTECTION” (UNIVERSITY OF IOWA RESEARCH FOUNDATION, priority 2015, published 2018)

Assays:
[1] = system: Cln2−/− mouse embryo fibroblast cells; experiment: caTPP1 neutralization antibody assay (NAbs in dog CSF/serum); type: cell-based
Method: To assess neutralizing Abs (Nabs) in CSF, Cln2−/− mouse embryo fibroblast cells were used. Sixteen hours before the assay, 1.0×10^5 cells/well were plated onto 24 wells plate the day before, and dog CSF was heat inactivated at 56° C. for 30 minutes, diluted 1:10, and then pre-incubated with 1.75 nM of TPP1 at 37° C. for one hour. The mixture was applied to cells for three hours at 37° C. after which the cells were washed with 37° C. HBSS (Ca^2+ and Mg^2+) and then homogenized in 100 μl of ice cold homogenization buffer-0.1% TritonX-100 in normal saline with complete protease inhibitor cocktail (Roche, Mannheim, Germany). Insoluble material was removed by centrifugation at 21×10^3 rcf at 4° C. for 10 minutes and TPP1 activity detected as described above. The results were calculated as percentage of activity obtained from CSF collected prior to vector administration.

[2] = system: CLN2−/− dogs; experiment: Cerebrospinal fluid TPP1 enzyme activity assay; type: in vivo, dog; settings: for CSF TPP1 activity after introduction of MMF: with cyclosporine and rAAV.caTPP1
Text: Long-haired miniature Dachshunds were bred and housed at the University of Missouri in facilities overseen by the Office of Animal Resources (OAR). TPP1-null animals were generated from heterozygous breeding (Awano, 2006). All puppies were genotyped by PCR. In addition to the standard care provided by the OAR, the dogs were socialized on a daily basis throughout the study. All procedures involving dogs were reviewed and approved by the University of Missouri Animal Care and Use Committee and conformed to the National Institutes of Health Guide for the Care and Use of Laboratory Animals. Intraventricular infusions were performed over 25 minutes using the Brainsight™ neuronavigation system equipped with a 26 gauge 12 cm needle. Cyclosporine 10 mg/kg twice daily by mouth was administered to all of the dogs in this study starting one to two weeks prior to the gene therapy vector administration. The dose was gradually tapered after 2 months to once daily, which was continued for the duration of the study. A 10-20 mg/kg daily dose by mouth of mycophenolate mofetil (MMF) was instituted, as indicated in the results, and tapered after 2 to several months depending on tolerability.
TPP1 activity was assayed via a modification of previously described methods (Chang et al., 2008; Tian et al., 2006). Samples were homogenized in 300 μl ice-cold homogenization buffer (0.1% Triton X-100 in normal saline with complete protease inhibitor cocktail, Roche, Mannheim, Germany). Insoluble material was removed by centrifugation at 21×10^3 rcf at 4° C.×15 minutes, and protein quantified by DC Protein Assay (Biorad, Hercules, Calif.). […] Plates were read in a Safire 2 microplate reader (Tecan., Mannedorf, Switzerland) at 37° C. using the 460-nm emission filter. […]
Samples were concentrated 3.5-fold using Amicon Ultra-0.5 Centrifugal filter (Ultracel-10K. Millipore Corporation) at 21×10^3 rcf for 5 minutes at 4° C. Activated TPP1 was quantified as in tissue samples.

[3] = system: dog disease model; settings: cited from earlier work
[4] = MMF 5 days prior to rAAV.caTPP1 delivery, DC018

With COc1c(C)c2c(c(O)c1C/C=C(\C)CCC(=O)OCCN1CCOCC1)C(=O)OC2 [MMF, mycophenolate mofetil] the anti-TPP1 antibodies [1, 4] was “did not appear”, the anti-TPP1 immune responses ([1]; MMF at the time of or before AAV delivery) was “reduced, inhibited or dramatically delayed” and the “anti-TPP1 Ab titers” value ([1]; MMF by 33 days post-vector, with cyclosporine and rAAV.caTPP1) was “reduction in anti-TPP1 Ab titers”. The “CSF TPP1 activity” value [2, 4] was “robust and sustained”, the “CSF TPP1 activity after introduction of MMF” value ([2]; MMF by 33 days post-vector, DC015, DC016) was “increase in CSF TPP1 activity” and the “CSF TPP1 activity after introduction of MMF” value ([2]; MMF from 44 days post-vector, DC013, DC014) was “did not result in a recovery of TPP1 activity”.

B1: recombinant human TPP1: recombinant human TPP1 infused into the lumbar subarachnoid space or lateral ventricle (Vuillemenot et al., 2015) (protein, UniProt O14773 196-563, looked up)
Tripeptidyl-peptidase 1: LHLGVTPSVIRKRYNLTSQDVGSGTSNNSQACAQFLEQYFHDSDLAQFMRLFGGNFAHQASVARVVGQQGRGRAGIEASLDVQYLMSAGANISTWVYSSPGRHEGQEPFLQWLMLLSNESALPHVHTVSYGDDEDSLSSAYIQRVNTELMKAAARGLTLLFASGDSGAGCWSVSGRHQFRPTFPASSPYVTTVGGTSFQEPFLITNEIVDYISGGGFSNVFPRPSYQEEAVTKFLSSSPHLPPSSYFNASGRAYPDVAALSDGYWVVSNRVPIPWVSGTSASTPVFGGILSLINEHRILSGRPPLGFLNPRLYQQHGAGLFDVTRGCHESCLDEEVEGQGFCSGPGWDPVTGWGTPNFPALLKTLLNP
For B1, the anaphylactic reactions ([3]; bolus infusion) is listed as “Anaphylactic reactions were noted” and the “immune responses to recombinant protein” value ([3]; infused into the lumbar subarachnoid space or lateral ventricle) is listed as “robust anti-TPP1 responses”.
